Reference: article PMC9308172 (Journal of medicinal chemistry, 2017)

Target: M2TMS31N (Influenza A virus, UniProt P0DOF5, S31N)
Type: binding, influenza A (A/Udorn/307/72, S31N mutant)
Settings: for binding to M2TMS31N according to ITC (in words): pH 8

## CCCC1(N)C2CC3CC(C2)CC1C3 (centres unmarked) [Compound 5]
  binding to M2TMS31N according to ITC (in words): bind weakly

## C1CNC2(C1)C1CC3CC(C1)CC2C3 (centres unmarked) [Compound 6]
  ΔG: -6.68 ± 0.296 kcal/mol
  binding to M2TMS31N according to ITC (in words): bind weakly

## NC1(C23CC4CC(CC(C4)C2)C3)CCCC1 [Compound 9]
  ΔG: -6.745 ± 0.229 kcal/mol

## NC1(C23CC4CC(CC(C4)C2)C3)CCCCC1 [Compound 10, 1-(1-Adamantyl)cyclohexanamine]
  ΔG: -7.029 ± 0.308 kcal/mol
